This note sets out measurements from patent EP0401963A1, “Phosphonopeptides with collagenase inhibiting activity” (Beecham Group p.l.c., priority 1989, dated 1990).

Structures are written as SMILES.

The assay has as its target human lung fibroblast collagenase. The experiment in a line: Collagenase inhibitor assay (human lung fibroblast collagenase, 14C-acetylated Type I collagen fibril degradation). Conditions: Inhibition of human lung fibroblast collagenase (purified from WI-38 culture supernatants); 14C-acetylated rat skin Type I collagen substrate; 37°C overnight; read-out: IC₅₀. Type of assay: biochemical. The procedure: The assay tubes are incubated at 37 °C overnight.
Turning to `CC[C@@H](N[C@@H](CC(C)C)C(=O)NC1CCCCCCCCCCNC1=O)P(=O)(O)O` (single isomer, unassigned) [Example E3C], the IC50 was 45 nM.

Turning to `CC[C@H](N[C@@H](CC(C)C)C(=O)NC1CCCCCCCCCCNC1=O)P(=O)(O)O` (single isomer, unassigned) [Example E4], the IC50 worked out at 166 nM.

Regarding `CCCCC(N[C@@H](CC(C)C)C(=O)NC1CCCCCCCCCCNC1=O)P(=O)(O)O` (stereo partly drawn) [Example E8, 3-[N-[N-(1-Phosphonopentyl)-(S)-leucyl]]-(-)-aminoazacyclotridecan-2-one], the IC50 is 9490 nM.
